Measured values reported in patent publication US10499642B2, “Isoxazoline-substituted benzamides and analogues as insecticides” (SYNGENTA PARTICIPATIONS AG, priority 2015, dated 2019).
Read-outs that look alike come from different tables or passages of the source.

Key:
Assay type in all cases: in vivo
Tetranychus urticae = Tetranychus urticae (two-spotted spider mite) bean leaf disc test; conditions: foliar, 192 h
Description: Tetranychus urticae (Two-Spotted Spider Mite):
Bean leaf discs on agar in 24-well microtiter plates were sprayed with aqueous test solutions prepared from 10′000 ppm DMSO stock solutions. After drying the leaf discs were infested with a mite population of mixed ages. The samples were assessed for mortality on mixed population (mobile stages) 8 days after infestation.

Diabrotica Balteata = experiment: Diabrotica balteata (corn root worm) maize sprout test; conditions: 96 h, read-out: effect in at least one of the two categories (mortality or growth inhibition)
Description: Diabrotica Balteata, (Corn Root Worm)
Maize sprouts, placed on an agar layer in 24-well microtiter plates were treated with aqueous test solutions prepared from 10′000 ppm DMSO stock solutions by spraying. After drying, the plates were infested with L2 larvae (6 to 10 per well). The samples were assessed for mortality and growth inhibition in comparison to untreated samples 4 days after infestation. The following compounds gave an effect of at least 80% in at least one of the two categories (mortality or growth inhibition) at an application rate of 200 ppm: […]

Spodoptera littoralis = Spodoptera littoralis (Egyptian cotton leaf worm) cotton leaf disc test; conditions: foliar, 72 h, read-out: control (at least one of mortality, anti-feedant effect, and growth inhibition)
Description: Spodoptera littoralis (Egyptian Cotton Leaf Worm)
Cotton leaf discs were placed on agar in 24-well microtiter plates and sprayed with aqueous test solutions prepared from 10′000 ppm DMSO stock solutions. After drying the leaf discs were infested with five L1 larvae. The samples were assessed for mortality, anti-feedant effect, and growth inhibition in comparison to untreated samples 3 days after infestation. Control of Spodoptera littoralis by a test sample is when at least one of mortality, anti-feedant effect, and growth inhibition is higher than the untreated sample.

Plutella xylostella = Plutella xylostella (diamond back moth) artificial diet test; conditions: 120 h, read-out: effect in at least one of the two categories (mortality or growth inhibition)
Description: Plutella xylostella (Diamond Back Moth):
24-well microtiter plates with artificial diet were treated with aqueous test solutions prepared from 10′000 ppm DMSO stock solutions by pipetting. After drying, the plates were infested with L2 larvae (10 to 15 per well). The samples were assessed for mortality and growth inhibition in comparison to untreated samples 5 days after infestation. The following compounds gave an effect of at least 80% in at least one of the two categories (mortality or growth inhibition) at an application rate of 200 ppm: […]

Thrips tabaci = Thrips tabaci (onion thrips) sunflower leaf disc test; conditions: foliar, 144 h
Description: Thrips tabaci (Onion Thrips):
Sunflower leaf discs were placed on agar in 24-well microtiter plates and sprayed with aqueous test solutions prepared from 10′000 ppm DMSO stock solutions. After drying the leaf discs were infested with a thrips population of mixed ages. The samples were assessed for mortality 6 days after infestation.

Cc1cc(C2=NO[C@@](c3cc(Cl)c(F)c(Cl)c3)(C(F)(F)F)C2)ccc1C(=O)N(C(=O)OC(C)(C)C)C1CC(COC2CCCCO2)=NO1 (some centres unmarked) [Compound A068]
≥ 80%: mortality at 200 ppm (Tetranychus urticae; application rate 200 ppm, bean leaf discs, mixed population (mobile stages), 8 days after infestation, read-out: mortality) | percent effect (mortality or growth inhibition) at 200 ppm (Diabrotica Balteata; application rate 200 ppm, maize sprouts, L2 larvae, 4 days after infestation) | percent control (mortality, anti-feedant effect or growth inhibition) at 200 ppm (Spodoptera littoralis; application rate 200 ppm, cotton leaf discs, L1 larvae, 3 days after infestation) | percent effect (mortality or growth inhibition) at 200 ppm (Plutella xylostella; application rate 200 ppm, artificial diet, L2 larvae, 5 days after infestation) | mortality at 200 ppm (Thrips tabaci; application rate 200 ppm, sunflower leaf discs, population of mixed ages, 6 days after infestation, read-out: mortality)

CCOC(=O)C1=NOC(N(C=O)C(=O)c2ccc(C3=NO[C@@](c4cc(Cl)c(F)c(Cl)c4)(C(F)(F)F)C3)cc2C)C1 (stereo partly drawn) [Compound A006, ethyl 5-[[4-[(5S)-5-(3,5-dichloro-4-fluoro-phenyl)-5-(trifluoromethyl)-4H-isoxazol-3-yl]-2-methyl-benzoyl]-formyl-amino]-4,5-dihydroisoxazole-3-carboxylate]
≥ 80%: percent effect (mortality or growth inhibition) at 200 ppm (Diabrotica Balteata) | percent control (mortality, anti-feedant effect or growth inhibition) at 200 ppm (Spodoptera littoralis) | percent effect (mortality or growth inhibition) at 200 ppm (Plutella xylostella) | mortality at 200 ppm (Thrips tabaci)

Cc1cc(C2=NO[C@@](c3cc(Cl)c(F)c(Cl)c3)(C(F)(F)F)C2)ccc1C(=O)N[C@H]1CC(Br)=NO1 (single isomer, unassigned) [Compound A146]
≥ 80%: mortality at 200 ppm (Tetranychus urticae) | percent effect (mortality or growth inhibition) at 200 ppm (Diabrotica Balteata) | percent control (mortality, anti-feedant effect or growth inhibition) at 200 ppm (Spodoptera littoralis) | percent effect (mortality or growth inhibition) at 200 ppm (Plutella xylostella) | mortality at 200 ppm (Thrips tabaci)

COC1=NO[C@@H](NC(=O)c2ccc(C3=NO[C@@](c4cc(Cl)c(F)c(Cl)c4)(C(F)(F)F)C3)cc2C)C1 (single isomer, unassigned) [Compound A151]
≥ 80%: mortality at 200 ppm (Tetranychus urticae) | percent effect (mortality or growth inhibition) at 200 ppm (Diabrotica Balteata) | percent control (mortality, anti-feedant effect or growth inhibition) at 200 ppm (Spodoptera littoralis) | percent effect (mortality or growth inhibition) at 200 ppm (Plutella xylostella) | mortality at 200 ppm (Thrips tabaci)

COC1=NO[C@H](N(C(=O)OC(C)(C)C)C(=O)c2ccc(C3=NO[C@@](c4cc(Cl)c(Cl)c(Cl)c4)(C(F)(F)F)C3)cc2C)C1 (single isomer, unassigned) [Compound A152]
≥ 80%: mortality at 200 ppm (Tetranychus urticae) | percent effect (mortality or growth inhibition) at 200 ppm (Diabrotica Balteata) | percent control (mortality, anti-feedant effect or growth inhibition) at 200 ppm (Spodoptera littoralis) | percent effect (mortality or growth inhibition) at 200 ppm (Plutella xylostella) | mortality at 200 ppm (Thrips tabaci)

C/C(N)=N/OC1=NOC(NC(=O)c2ccc(C3=NO[C@@](c4cc(Cl)c(F)c(Cl)c4)(C(F)(F)F)C3)cc2C)C1 (stereo partly drawn) [Compound A143, N-[3-[(Z)-1-aminoethylideneamino]oxy-4,5-dihydroisoxazol-5-yl]-4-[(5S)-5-(3,5-dichloro-4-fluoro-phenyl)-5-(trifluoromethyl)-4H-isoxazol-3-yl]-2-methyl-benzamide]
≥ 80%: mortality at 200 ppm (Tetranychus urticae) | percent effect (mortality or growth inhibition) at 200 ppm (Diabrotica Balteata) | percent control (mortality, anti-feedant effect or growth inhibition) at 200 ppm (Spodoptera littoralis) | percent effect (mortality or growth inhibition) at 200 ppm (Plutella xylostella) | mortality at 200 ppm (Thrips tabaci)

Cc1cc(C2=NO[C@@](c3cc(Cl)c(F)c(Cl)c3)(C(F)(F)F)C2)ccc1C(=O)NC1CC(C(=O)O)=NO1 (some centres unmarked) [Compound A117]
≥ 80%: mortality at 200 ppm (Tetranychus urticae) | percent effect (mortality or growth inhibition) at 200 ppm (Diabrotica Balteata) | percent control (mortality, anti-feedant effect or growth inhibition) at 200 ppm (Spodoptera littoralis) | percent effect (mortality or growth inhibition) at 200 ppm (Plutella xylostella) | mortality at 200 ppm (Thrips tabaci)

CCOC1=NO[C@@H](NC(=O)c2ccc(C3=NO[C@@](c4cc(Cl)cc(Cl)c4)(C(F)(F)F)C3)cc2C)C1 (single isomer, unassigned) [Compound A159]
≥ 80%: mortality at 200 ppm (Tetranychus urticae) | percent effect (mortality or growth inhibition) at 200 ppm (Diabrotica Balteata) | percent control (mortality, anti-feedant effect or growth inhibition) at 200 ppm (Spodoptera littoralis) | percent effect (mortality or growth inhibition) at 200 ppm (Plutella xylostella) | mortality at 200 ppm (Thrips tabaci)

COC1=NO[C@@H](N(C(=O)OC(C)(C)C)C(=O)c2ccc(C3=NO[C@@](c4cc(Cl)c(Cl)c(Cl)c4)(C(F)(F)F)C3)cc2C)C1 (single isomer, unassigned) [Compound A153]
≥ 80%: mortality at 200 ppm (Tetranychus urticae) | percent effect (mortality or growth inhibition) at 200 ppm (Diabrotica Balteata) | percent control (mortality, anti-feedant effect or growth inhibition) at 200 ppm (Spodoptera littoralis) | percent effect (mortality or growth inhibition) at 200 ppm (Plutella xylostella) | mortality at 200 ppm (Thrips tabaci)

CCOC(=O)C1=NOC(NC(=O)c2ccc(C3=NO[C@@](c4cc(Cl)c(F)c(Cl)c4)(C(F)(F)F)C3)cc2C)C1 (stereo partly drawn) [Compound A007, ethyl 5-[[4-[(5S)-5-(3,5-dichloro-4-fluoro-phenyl)-5-(trifluoromethyl)-4H-isoxazol-3-yl]-2-methyl-benzoyl]amino]-4,5-dihydroisoxazole-3-carboxylate]
≥ 80%: mortality at 200 ppm (Tetranychus urticae) | percent effect (mortality or growth inhibition) at 200 ppm (Diabrotica Balteata) | percent control (mortality, anti-feedant effect or growth inhibition) at 200 ppm (Spodoptera littoralis) | percent effect (mortality or growth inhibition) at 200 ppm (Plutella xylostella) | mortality at 200 ppm (Thrips tabaci)

CCS(=O)(=O)C1=NOC(NC(=O)c2ccc(C3=NO[C@@](c4cc(Cl)c(Cl)c(Cl)c4)(C(F)(F)F)C3)cc2C)C1 (some centres unmarked) [Compound A053]
≥ 80%: mortality at 200 ppm (Tetranychus urticae) | percent effect (mortality or growth inhibition) at 200 ppm (Diabrotica Balteata) | percent control (mortality, anti-feedant effect or growth inhibition) at 200 ppm (Spodoptera littoralis) | percent effect (mortality or growth inhibition) at 200 ppm (Plutella xylostella) | mortality at 200 ppm (Thrips tabaci)

Cc1cc(C2=NO[C@@](c3cc(Cl)c(Cl)c(Cl)c3)(C(F)(F)F)C2)ccc1C(=O)NC1CC(OS(C)(=O)=O)=NO1 (stereo partly drawn) [Compound A135, [5-[[2-methyl-4-[(5S)-5-(3,4,5-trichlorophenyl)-5-(trifluoromethyl)-4H-isoxazol-3-yl]benzoyl]amino]-4,5-dihydroisoxazol-3-yl] methanesulfonate]
≥ 80%: mortality at 200 ppm (Tetranychus urticae) | percent effect (mortality or growth inhibition) at 200 ppm (Diabrotica Balteata) | percent control (mortality, anti-feedant effect or growth inhibition) at 200 ppm (Spodoptera littoralis) | percent effect (mortality or growth inhibition) at 200 ppm (Plutella xylostella) | mortality at 200 ppm (Thrips tabaci)

O=C(NC1CC(Br)=NO1)c1ccc(C2=NO[C@@](c3cc(Cl)cc(Cl)c3)(C(F)(F)F)C2)cc1Cl (some centres unmarked) [Compound A093]
≥ 80%: mortality at 200 ppm (Tetranychus urticae) | percent effect (mortality or growth inhibition) at 200 ppm (Diabrotica Balteata) | percent control (mortality, anti-feedant effect or growth inhibition) at 200 ppm (Spodoptera littoralis) | percent effect (mortality or growth inhibition) at 200 ppm (Plutella xylostella) | mortality at 200 ppm (Thrips tabaci)

COCC1=NOC(N(C(=O)OC(C)(C)C)C(=O)c2ccc(C3=NO[C@@](c4cc(Cl)c(F)c(Cl)c4)(C(F)(F)F)C3)cc2C)C1 (some centres unmarked) [Compound A088]
≥ 80%: mortality at 200 ppm (Tetranychus urticae) | percent effect (mortality or growth inhibition) at 200 ppm (Diabrotica Balteata) | percent control (mortality, anti-feedant effect or growth inhibition) at 200 ppm (Spodoptera littoralis) | percent effect (mortality or growth inhibition) at 200 ppm (Plutella xylostella) | mortality at 200 ppm (Thrips tabaci)

Cc1cc(C2=NO[C@@](c3cc(Cl)c(F)c(Cl)c3)(C(F)(F)F)C2)ccc1C(=O)NC1CC(/C=N/O)=NO1 (some centres unmarked) [Compound A118]
≥ 80%: mortality at 200 ppm (Tetranychus urticae) | percent effect (mortality or growth inhibition) at 200 ppm (Diabrotica Balteata) | percent control (mortality, anti-feedant effect or growth inhibition) at 200 ppm (Spodoptera littoralis) | percent effect (mortality or growth inhibition) at 200 ppm (Plutella xylostella) | mortality at 200 ppm (Thrips tabaci)
